Experimental data: paper PMC8119466, “A screen of FDA-approved drugs identifies inhibitors of protein tyrosine phosphatase 4A3 (PTP4A3 or PRL-3)” (Scientific Reports, 2021)
Structures can show the parent of a compound that is named as a salt. Where two headings read alike, the source gives them in different places.

Key:
Assay type in all cases: biochemical
recombinant PRL-1 = target: T1, recombinant PRL-1 (Homo sapiens, UniProt Q93096); experiment: In vitro phosphatase assay (DiFMUP hydrolysis), PRL-1; also: test concentration or dose not given here
T1 construct: 6xHis (N, cleaved yes); made in house; host or cells: E. coli One Shot BL21 Star
T1 sequence (Q93096 1-173): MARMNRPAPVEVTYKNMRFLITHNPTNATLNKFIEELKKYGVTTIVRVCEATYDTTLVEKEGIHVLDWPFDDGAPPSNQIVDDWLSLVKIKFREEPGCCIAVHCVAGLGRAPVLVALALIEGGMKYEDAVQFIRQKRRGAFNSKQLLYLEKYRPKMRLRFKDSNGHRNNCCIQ

recombinant PRL-2 = target: T2, recombinant PRL-2 (Homo sapiens, UniProt Q12974); experiment: In vitro phosphatase assay (DiFMUP hydrolysis), PRL-2;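 also: PRL-2 activity read as DiFMUP hydrolysis after 20 min at room temperature with drug, enzyme first pre-reduced at 4 °C for 20 min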
T2 construct: 6xHis (N, cleaved yes); made in house; host or cells: E. coli One Shot BL21 Star
T2 sequence (Q12974 1-167): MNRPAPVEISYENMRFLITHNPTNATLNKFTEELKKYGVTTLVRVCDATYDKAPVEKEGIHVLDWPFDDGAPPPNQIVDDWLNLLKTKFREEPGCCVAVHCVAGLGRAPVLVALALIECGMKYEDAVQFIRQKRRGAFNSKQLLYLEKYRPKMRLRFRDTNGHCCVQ

recombinant PRL-3 = target: T3, recombinant PRL-3 (Homo sapiens, UniProt O75365); experiment: In vitro phosphatase assay (DiFMUP hydrolysis), PRL-3; also: test concentration or dose not given here
T3 construct: 6xHis (N, cleaved yes); made in house; host or cells: E. coli One Shot BL21 Star

[1] = FDA-approved drug screen, compared to DMSO

T3 sequence (O75365 whole entry): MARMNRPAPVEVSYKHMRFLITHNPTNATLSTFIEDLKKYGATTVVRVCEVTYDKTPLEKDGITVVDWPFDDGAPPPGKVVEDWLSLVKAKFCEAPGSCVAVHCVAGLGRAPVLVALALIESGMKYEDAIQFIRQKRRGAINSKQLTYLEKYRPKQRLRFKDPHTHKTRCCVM

Row | Compound | % Phosphatase Activity (compared to DMSO) PRL-1 (recombinant PRL-1; [1]) [%] | % Phosphatase Activity (compared to DMSO) PRL-2 (recombinant PRL-2; [1]) [%] | % Phosphatase Activity (compared to DMSO) PRL-3 (recombinant PRL-3; [1]) [%] | % Phosphatase Activity (compared to DMSO) PRL-1 (recombinant PRL-1) [%] | % Phosphatase Activity (compared to DMSO) PRL-2 (recombinant PRL-2) [%] | % Phosphatase Activity (compared to DMSO) PRL-3 (recombinant PRL-3) [%]
1 | CC(O)C(=O)O.CN1CCN(c2ccc3nc(-c4c(N)c5c(F)cccc5[nH]c4=O)[nH]c3c2)CC1 [Dovitinib (TKI258) Lactate] | 86 | 70 | 85 | – | – | –
2 | CC(O)C(=O)O.CC(O)C(=O)O.CN1CCN(c2ccc3nc(-c4c(N)c5c(F)cccc5[nH]c4=O)[nH]c3c2)CC1 [Dovitinib (TKI-258) Dilactic Acid] | 92 | 80 | 91 | – | – | –
3 | CN1CCN(c2ccc3nc(-c4c(N)c5c(F)cccc5[nH]c4=O)[nH]c3c2)CC1 [Dovitinib (TKI-258, CHIR-258)] | 87 | 96 | 74 | – | – | –
4 | CCN1CC(CCN2CCOCC2)C(c2ccccc2)(c2ccccc2)C1=O.Cl (stereo not drawn) [Doxapram HCl] | 113 | 98 | 92 | – | – | –
5 | COc1cc2nc(N3CCN(C(=O)C4COc5ccccc5O4)CC3)nc(N)c2cc1OC (stereo not drawn) [Doxazosin Mesylate] | 441 | 528 | 305 | – | – | –
6 | C=C1/C(=C\C=C2/CCC[C@]3(C)[C@@H]([C@H](C)/C=C/[C@H](C)C(C)C)CC[C@@H]23)C[C@@H](O)C[C@@H]1O [Doxercalciferol] | 105 | 99 | 71 | – | – | –
7 | C[C@H]1O[C@@H](n2cc(F)c(=O)[nH]c2=O)[C@H](O)[C@@H]1O [Doxifluridine] | 91 | 103 | 98 | – | – | –
8 | Cn1c(=O)c2c(ncn2CC2OCCO2)n(C)c1=O [Doxofylline] | 103 | 109 | 79 | – | – | –
9 | COc1cccc2c1C(=O)c1c(O)c3c(c(O)c1C2=O)C[C@@](O)(C(=O)CO)C[C@@H]3O[C@H]1C[C@H](N)[C@H](O)[C@H](C)O1 [Doxorubicin (Adriamycin)] | 75 | 74 | 73 | – | – | –
10 | C[C@H]1c2cccc(O)c2C(=O)C2=C(O)[C@]3(O)C(=O)C(C(N)=O)=C(O)[C@@H](N(C)C)[C@@H]3[C@@H](O)[C@@H]21 [Doxycycline HCl] | 83 | 83 | 73 | – | – | –
11 | CN(C)CCOC(C)(c1ccccc1)c1ccccn1 (stereo not drawn) [Doxylamine Succinate] | 91 | 83 | 71 | – | – | –
12 | CCCCc1oc2ccc(NS(C)(=O)=O)cc2c1C(=O)c1ccc(OCCCN(CCCC)CCCC)cc1 [Dronedarone HCl] | 116 | 131 | 96 | – | – | –
13 | O=C(CCCN1CC=C(n2c(=O)[nH]c3ccccc32)CC1)c1ccc(F)cc1 [Droperidol] | 85 | 106 | 71 | – | – | –
14 | OCC(O)CN1CCN(c2ccccc2)CC1 (stereo not drawn) [Dropropizine] | 91 | 110 | 76 | – | – | –
15 | C[C@]12CCC(=O)C=C1[C@@H]1C[C@@H]1[C@H]1[C@@H]3[C@@H]4C[C@@H]4[C@@]4(CCC(=O)O4)[C@@]3(C)CC[C@@H]12 [Drospirenone] | 90 | 89 | 71 | – | – | –
16 | CNCC[C@H](Oc1cccc2ccccc12)c1cccs1 [Duloxetine HCl] | – | – | – | 97 | 107 | 89
17 | C[C@]12C=CC(=O)N[C@@H]1CC[C@@H]1[C@@H]2CC[C@]2(C)[C@@H](C(=O)Nc3cc(C(F)(F)F)ccc3C(F)(F)F)CC[C@@H]12 [Dutasteride] | 94 | 88 | 82 | – | – | –
